Entries after “also recorded” stand apart in the source; their conditions may differ.
Columns and labels:
healthy volunteers = assay: Phase 1 safety and tolerability; type: in vivo, human
Description: A randomized, double-blind, placebo-controlled Phase 1 trial (ClinicalTrials.gov identifier: NCT05484414) was conducted to assess the safety, tolerability, food effect, pharmacokinetics (PK), and pharmacodynamics (PD) of single and multiple ascending doses of SRP-001 (Quotient Sciences, Miami FL USA; FIG. 3H and Online Methods). The trial was conducted in accordance with the International Council for Harmonisation of Technical Requirements for Pharmaceuticals for Human Use (ICH), Guideline for GCP: Consolidated Guidance (E6), attained Institutional Review Board approval, and all applicable regulatory requirements for Phase 1, First in Human clinical trials. Safety measurements and plasma samples to determine PK parameters were collected throughout the study for all subjects and reviewed by the Safety Review Committee. PK stopping criteria were established to assure that systemic exposure to SRP-001 was less than or equal to the systemic exposure achieved at the NOAEL doses in the 28-day repeat-dose toxicology studies in the rat and dog. The trial's Safety Advisory Committee has approved the publication of the Phase 1 results.
A two-part randomized, double-blind, placebo-controlled Phase 1 trial was conducted to assess the safety, tolerability, PK and PD of SRP-001 ascending doses (Quotient Sciences, Miami, FL USA). […]
Safety—Holter (continuous ECG) Monitoring: NHVs also underwent continuous ECG Holter monitoring from at least 1 h prior to dosing until 24 h post-dose, and resulting measurements were monitored consistently. […] Where any scheduled rest times were missed, where there was less than a 10-min rest period, or where the final 5 min of a rest period was interrupted (for example, by subject movement or loss of leads), a protocol deviation was recorded, and the Holter provider was informed. Loss of leads or interruption of the recording outside of the scheduled rest times was not considered a protocol deviation but was recorded in the source. […]

dog = details: in vivo
Description: To determine the appropriate doses, maximum tolerated dose studies (non-GLP) were conducted prior to the definitive GLP systemic toxicity studies. SRP-001 was evaluated by a full battery of GLP-compliant toxicity studies. Systemic toxicity was evaluated in Sprague-Dawley rats and Beagle dogs by oral administration over 28 days (FIG. 24 and FIGS. 27-28, Table 2). […]

hERG current = target: T1, hERG current (Homo sapiens, UniProt Q12809); assay: In vitro hERG cardiotoxicity assay in human embryonic kidney cells; type: cell-based
T1 construct: expressed in transfected cells; host or cells: human embryonic kidney cells
T1 sequence (Q12809 whole entry): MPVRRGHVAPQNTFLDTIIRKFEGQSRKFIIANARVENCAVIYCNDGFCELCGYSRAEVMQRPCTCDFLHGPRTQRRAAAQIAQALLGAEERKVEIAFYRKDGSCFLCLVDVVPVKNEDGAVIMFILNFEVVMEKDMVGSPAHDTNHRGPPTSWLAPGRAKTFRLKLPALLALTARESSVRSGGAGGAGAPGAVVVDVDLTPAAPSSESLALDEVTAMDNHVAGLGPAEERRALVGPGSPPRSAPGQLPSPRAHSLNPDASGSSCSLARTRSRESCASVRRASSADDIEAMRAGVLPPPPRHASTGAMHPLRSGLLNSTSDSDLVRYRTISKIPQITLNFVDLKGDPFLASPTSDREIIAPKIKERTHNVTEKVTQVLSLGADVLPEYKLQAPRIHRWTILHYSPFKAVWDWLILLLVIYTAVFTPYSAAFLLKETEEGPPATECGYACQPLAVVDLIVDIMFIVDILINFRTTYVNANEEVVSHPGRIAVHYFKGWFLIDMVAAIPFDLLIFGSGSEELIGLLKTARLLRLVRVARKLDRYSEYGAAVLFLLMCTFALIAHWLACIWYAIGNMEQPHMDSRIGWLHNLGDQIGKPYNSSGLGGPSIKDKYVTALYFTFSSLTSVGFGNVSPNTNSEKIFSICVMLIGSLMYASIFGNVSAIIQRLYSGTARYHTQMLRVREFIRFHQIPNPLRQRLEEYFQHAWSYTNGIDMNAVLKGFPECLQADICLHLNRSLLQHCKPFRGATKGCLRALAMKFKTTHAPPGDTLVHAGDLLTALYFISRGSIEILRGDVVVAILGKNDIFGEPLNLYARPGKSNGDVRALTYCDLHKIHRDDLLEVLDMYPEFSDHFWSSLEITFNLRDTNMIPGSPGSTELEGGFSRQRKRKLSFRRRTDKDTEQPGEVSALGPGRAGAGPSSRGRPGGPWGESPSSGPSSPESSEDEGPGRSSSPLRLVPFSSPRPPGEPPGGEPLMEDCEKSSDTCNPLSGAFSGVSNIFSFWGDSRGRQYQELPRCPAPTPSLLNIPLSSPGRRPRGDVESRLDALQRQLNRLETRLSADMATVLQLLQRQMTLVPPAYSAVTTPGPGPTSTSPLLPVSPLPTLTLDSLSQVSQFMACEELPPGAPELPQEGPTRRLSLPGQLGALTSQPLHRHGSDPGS
Description: (§1) The effects of SRP-001 on hERG current amplitude at physiologic temperatures were evaluated over a nominal concentration range of 0.1 μM to 100M. A vehicle group (10% DMSO) was included in the study for comparison, and dofetilide (10 nM) was used as a reference substance. The vehicle and positive controls indicated appropriate sensitivity of the test systems. […] Next, the potential acute effects of oral SRP-001 on cardiovascular function in conscious telemetered beagle dogs was done using a Latin Square design; 4 male naïve beagle dogs each received vehicle (10% DMSO: 10% labrasol: 80% PEG400) and three doses (30, 90, and 150 mg/kg) of SRP-001 nanosuspension by oral gavage. […] A single dose was administered on the day of dosing, and a washout period of seven days was allowed between doses. One-min means of hemodynamic parameters, as well as ECG parameters and body temperature, were measured for a period of at least 24 h. One-min tracings of the ECGs were obtained at 15 min prior to dosing and at 30 min, 1, 2, 4, 8, 12, and 24 h post-dose. Qualitative evaluation of the ECGs was done by a board-certified veterinary cardiologist.

[1] = tested on: conscious male Sprague-Dawley rats; assay: Pulmonary function evaluation in conscious male Sprague-Dawley rats (GLP); type: in vivo, rat; details: 220, 440 and 660 mg/kg oral
Description: The potential effects of orally administered SRP-001 on respiratory rate, tidal volume, and minute volume in conscious male Sprague-Dawley rats was studied in 24 male rats. The rodents were trained for two days in the head-out plethysmograph chamber for 15-17 min each prior to the experiment. On the day of dosing, each animal was weighed and placed in the plethysmograph chamber, and baseline respiratory parameters were obtained for 5 min following an approximately 5-min stabilization period. The rats were then removed from the chamber and dosed by oral gavage. Three groups of six male Sprague-Dawley rats each were orally administered SRP-001 at a single dose of 220, 440, or 660 mg/kg at a dose volume of 10 mL/kg. […] Following dosing, each animal was returned to its designated plethysmograph chamber, and the respiratory parameters were recorded at 30 min (±5 min), 2, 4, and 6 h (±15 min). Animals were allowed to stabilize in the plethysmograph chamber for at least 5 min before each reading was taken. The following parameters were acquired, recorded, and analyzed using Ponemah Physiology Platform (Ponemah v.5.20 Pulmonary); Respiratory rate, Tidal Volume, and Minute Volume, Values for the test article treated group were compared to the vehicle control values using a two-way repeated measures ANOVA followed by a Bonferroni Multiple Comparison Test (SigmaStat, v. 4.0). […]

[2] = tested on: conscious telemetered beagle dogs; assay: Cardiovascular effect in conscious telemetered beagle dogs (GLP); type: in vivo, dog
Description: as §1

CCN(CC)C(=O)c1ccccc1S(=O)(=O)NCC(=O)Nc1ccc(O)cc1 [SRP-001, N,N-diethyl-2-[[2-(4-hydroxyanilino)-2-oxo-ethyl]sulfamoyl]benzamide]
emesis (healthy volunteers; Phase 1 MAD cohort): no emesis was reported | safety assessments (vital signs, ECG, laboratory tests) (healthy volunteers; SAD and MAD cohorts): revealed no abnormalities | tolerability / serious adverse events (healthy volunteers; oral nanosuspension, SAD and MAD cohorts, 42 subjects on SRP-001): no serious adverse events (SAEs) reported | mortality after single doses (dog): did not result in any mortality | hERG signal / blocker class (hERG current; 0.1 μM to 100 μM): weak blocker of hERG current; also recorded: absent relevant signal | block of hERG current (hERG current; 100 μM, highest concentration tested, physiologic temperatures): 21.4±3.9% | effects on respiratory rate, tidal volume, minute volume [1]: no effects on pulmonary function or cardio-telemetry; also recorded: did not induce any significant effects | effects on blood pressure, heart rate, ECG morphology, ECG measurements, body temperature ([2]; 30, 90 and 150 mg/kg oral): no effects on pulmonary function or cardio-telemetry; also recorded: did not induce any biologically relevant effects | QTc ([2]; telemetered safety pharmacology study in dogs): no prolonged QTc

Source: patent US20250339391A1, “METHODS FOR EFFECTIVE MANAGEMENT OF PAIN” (South Rampart Pharma, Inc., priority 2024, published 2025)
